Test results: the supplement of paper PMC6045584
± gives the standard deviation of the averaged measurements.

Columns and labels:
SALINOMYCIN = compound: CC[C@@H](C(=O)[C@@H](C)[C@@H](O)[C@H](C)[C@@H]1O[C@@H]([C@@H](CC)C(=O)O)CC[C@@H]1C)[C@H]1O[C@]2(C=C[C@@H](O)[C@]3(CC[C@@](C)([C@H]4CC[C@](O)(CC)[C@H](C)O4)O3)O2)[C@H](C)C[C@@H]1C [SALINOMYCIN]; experiment: surviving fraction relative to DMSO-only wells; higher = less growth inhibition; conditions: exposure time: 5 days
Method in brief: (§1)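 Surviving fraction is CellTiter-Glo luminescence divided by the median of wells given DMSO only. For this, log-phase tumour cell lines went into 384-well plates at 250–500 cells per well and, 24 hours later, into five days of continuous inhibitor exposure at 0.5, 1, 5, 10, 50, 100, 500 and 1000 nM. Lines were screened three times and retained only if replicate Pearson r >0.7 and median Z' >0.3.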

NUTLIN3 = compound: COc1ccc(C2=N[C@@H](c3ccc(Cl)cc3)[C@@H](c3ccc(Cl)cc3)N2C(=O)N2CCNC(=O)C2)c(OC(C)C)c1 [NUTLIN3]; experiment: as above; conditions: exposure time: 5 days
Method in brief: as §1

OS25HAL BONE
surviving fraction (SALINOMYCIN; 0.5 nM): 0.952 ± 0.016 | surviving fraction (SALINOMYCIN; 1 nM): 0.943 ± 0.012 | surviving fraction (SALINOMYCIN; 5 nM): 0.964 ± 0.02 | surviving fraction (SALINOMYCIN; 10 nM): 0.932 ± 0.02 | surviving fraction (SALINOMYCIN; 50 nM): 0.979 ± 0.031 | surviving fraction (SALINOMYCIN; 100 nM): 0.792 ± 0.017 | surviving fraction (SALINOMYCIN; 500 nM): 0.122 ± 0.014 | surviving fraction (SALINOMYCIN; 1000 nM): 0.0527 ± 0.0015 | surviving fraction (NUTLIN3; 0.5 nM): 0.975 ± 0.014 | surviving fraction (NUTLIN3; 1 nM): 0.998 ± 0.018 | surviving fraction (NUTLIN3; 5 nM): 0.979 ± 0.013 | surviving fraction (NUTLIN3; 10 nM): 0.974 ± 0.03 | surviving fraction (NUTLIN3; 50 nM): 1.06 ± 0.0081 | surviving fraction (NUTLIN3; 100 nM): 1.064 ± 0.0045 | surviving fraction (NUTLIN3; 500 nM): 1.052 ± 0.0056 | surviving fraction (NUTLIN3; 1000 nM): 1.06 ± 0.013

OSHN BONE
surviving fraction (SALINOMYCIN; 0.5 nM): 1.02 ± 0.019 | surviving fraction (SALINOMYCIN; 1 nM): 1.01 ± 0.011 | surviving fraction (SALINOMYCIN; 5 nM): 1.01 ± 0.016 | surviving fraction (SALINOMYCIN; 10 nM): 1.02 ± 0.02 | surviving fraction (SALINOMYCIN; 50 nM): 1.01 ± 0.018 | surviving fraction (SALINOMYCIN; 100 nM): 0.966 ± 0.013 | surviving fraction (SALINOMYCIN; 500 nM): 0.247 ± 0.005 | surviving fraction (SALINOMYCIN; 1000 nM): 0.115 ± 0.0046 | surviving fraction (NUTLIN3; 0.5 nM): 1.06 ± 0.036 | surviving fraction (NUTLIN3; 1 nM): 1.05 ± 0.057 | surviving fraction (NUTLIN3; 5 nM): 1.06 ± 0.034 | surviving fraction (NUTLIN3; 10 nM): 1.05 ± 0.044 | surviving fraction (NUTLIN3; 50 nM): 1.09 ± 0.058 | surviving fraction (NUTLIN3; 100 nM): 1.07 ± 0.033 | surviving fraction (NUTLIN3; 500 nM): 1.08 ± 0.034 | surviving fraction (NUTLIN3; 1000 nM): 1.07 ± 0.029

PCI30 HEADNECK
surviving fraction (SALINOMYCIN; 0.5 nM): 0.829 ± 0.026 | surviving fraction (SALINOMYCIN; 1 nM): 0.895 ± 0.025 | surviving fraction (SALINOMYCIN; 5 nM): 1.01 ± 0.07 | surviving fraction (SALINOMYCIN; 10 nM): 0.945 ± 0.03 | surviving fraction (SALINOMYCIN; 50 nM): 0.813 ± 0.013 | surviving fraction (SALINOMYCIN; 100 nM): 0.64 ± 0.064 | surviving fraction (SALINOMYCIN; 500 nM): 0.202 ± 0.005 | surviving fraction (SALINOMYCIN; 1000 nM): 0.145 ± 0.0085 | surviving fraction (NUTLIN3; 0.5 nM): 1.01 ± 0.034 | surviving fraction (NUTLIN3; 1 nM): 0.93 ± 0.019 | surviving fraction (NUTLIN3; 5 nM): 1.04 ± 0.026 | surviving fraction (NUTLIN3; 10 nM): 1.06 ± 0.064 | surviving fraction (NUTLIN3; 50 nM): 1.14 ± 0.062 | surviving fraction (NUTLIN3; 100 nM): 1.09 ± 0.05 | surviving fraction (NUTLIN3; 500 nM): 1.02 ± 0.041 | surviving fraction (NUTLIN3; 1000 nM): 1.04 ± 0.092

RDES SOFT TISSUE
surviving fraction (SALINOMYCIN; 0.5 nM): 1.12 ± 0.12 | surviving fraction (SALINOMYCIN; 1 nM): 1.21 ± 0.03 | surviving fraction (SALINOMYCIN; 5 nM): 1.17 ± 0.2 | surviving fraction (SALINOMYCIN; 10 nM): 1.12 ± 0.13 | surviving fraction (SALINOMYCIN; 50 nM): 0.438 ± 0.22 | surviving fraction (SALINOMYCIN; 100 nM): 0.0573 ± 0.0031 | surviving fraction (SALINOMYCIN; 500 nM): 0.399 ± 0.021 | surviving fraction (SALINOMYCIN; 1000 nM): 0.218 ± 0.014 | surviving fraction (NUTLIN3; 0.5 nM): 1.25 ± 0.074 | surviving fraction (NUTLIN3; 1 nM): 1.32 ± 0.076 | surviving fraction (NUTLIN3; 5 nM): 1.07 ± 0.044 | surviving fraction (NUTLIN3; 10 nM): 1.18 ± 0.14 | surviving fraction (NUTLIN3; 50 nM): 1.17 ± 0.13 | surviving fraction (NUTLIN3; 100 nM): 1 ± 0.17 | surviving fraction (NUTLIN3; 500 nM): 1.4 ± 0.22 | surviving fraction (NUTLIN3; 1000 nM): 1.25 ± 0.17

S68 BREAST
surviving fraction (SALINOMYCIN; 0.5 nM): 0.923 ± 0.097 | surviving fraction (SALINOMYCIN; 1 nM): 0.998 ± 0.14 | surviving fraction (SALINOMYCIN; 5 nM): 1.37 ± 0.22 | surviving fraction (SALINOMYCIN; 10 nM): 1.04 ± 0.29 | surviving fraction (SALINOMYCIN; 50 nM): 0.934 ± 0.22 | surviving fraction (SALINOMYCIN; 100 nM): 0.731 ± 0.079 | surviving fraction (SALINOMYCIN; 500 nM): 0.337 ± 0.099 | surviving fraction (SALINOMYCIN; 1000 nM): 0.209 ± 0.03 | surviving fraction (NUTLIN3; 0.5 nM): 0.854 ± 0.16 | surviving fraction (NUTLIN3; 1 nM): 0.785 ± 0.32 | surviving fraction (NUTLIN3; 5 nM): 0.92 ± 0.03 | surviving fraction (NUTLIN3; 10 nM): 0.976 ± 0.16 | surviving fraction (NUTLIN3; 50 nM): 1.28 ± 0.18 | surviving fraction (NUTLIN3; 100 nM): 0.99 ± 0.07 | surviving fraction (NUTLIN3; 500 nM): 0.936 ± 0.25 | surviving fraction (NUTLIN3; 1000 nM): 1.01 ± 0.22

SAOS2 BONE
surviving fraction (SALINOMYCIN; 0.5 nM): 0.98 ± 0.038 | surviving fraction (SALINOMYCIN; 1 nM): 0.902 ± 0.077 | surviving fraction (SALINOMYCIN; 5 nM): 0.946 ± 0.073 | surviving fraction (SALINOMYCIN; 10 nM): 0.8803 ± 0.0075 | surviving fraction (SALINOMYCIN; 50 nM): 1.06 ± 0.097 | surviving fraction (SALINOMYCIN; 100 nM): 1.11 ± 0.05 | surviving fraction (SALINOMYCIN; 500 nM): 0.763 ± 0.016 | surviving fraction (SALINOMYCIN; 1000 nM): 0.488 ± 0.018 | surviving fraction (NUTLIN3; 0.5 nM): 1.16 ± 0.028 | surviving fraction (NUTLIN3; 1 nM): 0.981 ± 0.037 | surviving fraction (NUTLIN3; 5 nM): 1.13 ± 0.043 | surviving fraction (NUTLIN3; 10 nM): 1.09 ± 0.048 | surviving fraction (NUTLIN3; 50 nM): 1.15 ± 0.017 | surviving fraction (NUTLIN3; 100 nM): 1.2 ± 0.029 | surviving fraction (NUTLIN3; 500 nM): 1.12 ± 0.033 | surviving fraction (NUTLIN3; 1000 nM): 1.043 ± 0.0023

SCC003 HEADNECK
surviving fraction (SALINOMYCIN; 0.5 nM): 0.904 ± 0.056 | surviving fraction (SALINOMYCIN; 1 nM): 0.863 ± 0.098 | surviving fraction (SALINOMYCIN; 5 nM): 0.946 ± 0.042 | surviving fraction (SALINOMYCIN; 10 nM): 0.973 ± 0.059 | surviving fraction (SALINOMYCIN; 50 nM): 1.04 ± 0.11 | surviving fraction (SALINOMYCIN; 100 nM): 0.897 ± 0.05 | surviving fraction (SALINOMYCIN; 500 nM): 0.49 ± 0.021 | surviving fraction (SALINOMYCIN; 1000 nM): 0.267 ± 0.016 | surviving fraction (NUTLIN3; 0.5 nM): 1.05 ± 0.12 | surviving fraction (NUTLIN3; 1 nM): 1.01 ± 0.081 | surviving fraction (NUTLIN3; 5 nM): 1.03 ± 0.12 | surviving fraction (NUTLIN3; 10 nM): 1 ± 0.088 | surviving fraction (NUTLIN3; 50 nM): 1.06 ± 0.062 | surviving fraction (NUTLIN3; 100 nM): 1.12 ± 0.07 | surviving fraction (NUTLIN3; 500 nM): 1.09 ± 0.089 | surviving fraction (NUTLIN3; 1000 nM): 1.07 ± 0.13

SCC36 HEADNECK
surviving fraction (SALINOMYCIN; 0.5 nM): 0.984 ± 0.07 | surviving fraction (SALINOMYCIN; 1 nM): 0.972 ± 0.12 | surviving fraction (SALINOMYCIN; 5 nM): 1.094 ± 0.0015 | surviving fraction (SALINOMYCIN; 10 nM): 0.973 ± 0.039 | surviving fraction (SALINOMYCIN; 50 nM): 1.11 ± 0.02 | surviving fraction (SALINOMYCIN; 100 nM): 0.925 ± 0.051 | surviving fraction (SALINOMYCIN; 500 nM): 0.149 ± 0.011 | surviving fraction (SALINOMYCIN; 1000 nM): 0.08 ± 0.0078 | surviving fraction (NUTLIN3; 0.5 nM): 1.07 ± 0.15 | surviving fraction (NUTLIN3; 1 nM): 1.04 ± 0.087 | surviving fraction (NUTLIN3; 5 nM): 1.16 ± 0.014 | surviving fraction (NUTLIN3; 10 nM): 1.04 ± 0.03 | surviving fraction (NUTLIN3; 50 nM): 1.19 ± 0.069 | surviving fraction (NUTLIN3; 100 nM): 1.17 ± 0.044 | surviving fraction (NUTLIN3; 500 nM): 1.04 ± 0.1 | surviving fraction (NUTLIN3; 1000 nM): 1.1 ± 0.051

SCC47 HEADNECK
surviving fraction (SALINOMYCIN; 0.5 nM): 0.842 ± 0.064 | surviving fraction (SALINOMYCIN; 1 nM): 0.792 ± 0.026 | surviving fraction (SALINOMYCIN; 5 nM): 0.977 ± 0.074 | surviving fraction (SALINOMYCIN; 10 nM): 0.992 ± 0.044 | surviving fraction (SALINOMYCIN; 50 nM): 1.06 ± 0.085 | surviving fraction (SALINOMYCIN; 100 nM): 1 ± 0.12 | surviving fraction (SALINOMYCIN; 500 nM): 0.561 ± 0.068 | surviving fraction (SALINOMYCIN; 1000 nM): 0.489 ± 0.023 | surviving fraction (NUTLIN3; 0.5 nM): 1.08 ± 0.082 | surviving fraction (NUTLIN3; 1 nM): 1.03 ± 0.023 | surviving fraction (NUTLIN3; 5 nM): 1.14 ± 0.026 | surviving fraction (NUTLIN3; 10 nM): 1.135 ± 0.0096 | surviving fraction (NUTLIN3; 50 nM): 1.13 ± 0.051 | surviving fraction (NUTLIN3; 100 nM): 1.16 ± 0.088 | surviving fraction (NUTLIN3; 500 nM): 1.07 ± 0.052 | surviving fraction (NUTLIN3; 1000 nM): 1.14 ± 0.099

SCC90 HEADNECK
surviving fraction (SALINOMYCIN; 0.5 nM): 0.897 ± 0.073 | surviving fraction (SALINOMYCIN; 1 nM): 0.919 ± 0.035 | surviving fraction (SALINOMYCIN; 5 nM): 1.16 ± 0.059 | surviving fraction (SALINOMYCIN; 10 nM): 0.986 ± 0.14 | surviving fraction (SALINOMYCIN; 50 nM): 1.17 ± 0.2 | surviving fraction (SALINOMYCIN; 100 nM): 0.963 ± 0.057 | surviving fraction (SALINOMYCIN; 500 nM): 0.301 ± 0.041 | surviving fraction (SALINOMYCIN; 1000 nM): 0.255 ± 0.067 | surviving fraction (NUTLIN3; 0.5 nM): 1.05 ± 0.051 | surviving fraction (NUTLIN3; 1 nM): 1.04 ± 0.22 | surviving fraction (NUTLIN3; 5 nM): 1.13 ± 0.15 | surviving fraction (NUTLIN3; 10 nM): 1.11 ± 0.23 | surviving fraction (NUTLIN3; 50 nM): 1.12 ± 0.12 | surviving fraction (NUTLIN3; 100 nM): 1.02 ± 0.026 | surviving fraction (NUTLIN3; 500 nM): 0.997 ± 0.098 | surviving fraction (NUTLIN3; 1000 nM): 1.04 ± 0.098
